From patent publication US12130283B2, “Methods, systems and compositions for functional in vitro cellular models of mammalian systems” (University of Central Florida Research Foundation, Inc., priority 2012, dated 2024)

Assays:
[1] = system: colon cancer; conditions: cited from earlier work
[2] = system: patterned neonatal cardiomyocytes; assay: Field potential recordings from patterned neonatal cardiomyocytes on microelectrode arrays; assay type: cell-based, rat
Text: However, commercial MEAs have electrodes spaced too close to allow effective measurement of conduction velocity, so the long linear surface chemistry patterns developed in [Natarajan 2011] allowed for measurement of conduction velocity in the spontaneously beating patterned cardiomyocytes effectively.
The μCCA in FIG. 4 required the use of liver cells and cardiac myocytes. In FIG. 4GB, pump is 43, other tissues compartment is 44, and bubble is 45. The neonatal cardiac myocyte cultures are obtained from two-day-old rat pups by previously published methods [Dhir 2009; Natajaran 2011]. Cardiac myocytes were plated at a density of […] on the patterned MEAs. Approximately 10 days were required for the cultures to establish themselves. Cardiac myocytes were stable on the patterns for at least 30 days. A silicon rubber gasket was used to isolate the tissue chambers on the μCCA prior to assembly to allow optimization of culture conditions in each chamber. After 10 days, cells were introduced to the liver compartment. […]
The cardiac myocytes were cultured on patterned metal MEAs (Planar 10 μm electrodes, 200 μm separation. Multichannel-systems). […] After a 30 minute incubation period, APs were detected and recorded using built in functions of the Multichannel System software. […] The data was further analyzed using software written using Matlab and Clampfit (Axon instruments).

[3] = system: cultured cardiomyocytes; assay: Spontaneous firing rate of cultured cardiomyocytes on patterned MEA (FIG. 14F); assay type: cell-based, human
Text: The disclosed systems are based on human cardiac myocytes. As described herein, the incorporation of a functional cardiac system based on patterned cardiac cells integrated with microelectrode assays enabled the measurement of several cardiac parameters including conduction velocity, peak amplitude and spontaneous frequency, QT interval, and relative refractory period (which is related to triangulation). […] As shown in FIGS. 14A-F, cardiac function can be mimicked or simulated using a component comprising a microcantilever detection system (14A) or a patterned MEA (microelectrode array), FIG. 14D. […] Spontaneous or electrical stimulation-evoked force generation of cardiac myocytes was measured based on optical or electrical detection of cantilever-bending. […] The sensor detected the displacement of the laser beam caused by changes in the position of the cantilever. […] Peak contraction force and force-contraction velocity relationships were calculated based on the geometry of the cantilevers and the thickness of cultured cardiac myocytes (determined from immunostaining data). Compounds (such as norepinephrine, verapamil, and sotalol) were applied using traditional methods to the medium and possible changes in force or force-velocity relationship were detected and analyzed using standard statistical methods. […]

[4] = in vivo; cited from earlier work

O=c1cc[nH]c(=O)[nH]1 [uracil]
effect on the toxicity of Tegafur [1]: enhances the toxicity of Tegafur

C[C@@H]1CN(c2c(F)c(N)c3c(=O)c(C(=O)O)cn(C4CC4)c3c2F)C[C@H](C)N1 [sparfloxacin]
responsiveness of the patterned cardiac system [2]: responsive

CCCCCCCO [1-Heptanol]
conduction velocity (CV) after Heptanol exposure ([2]; between electrodes 84 and 52, CV before addition of the drug 0.22 m/sec): 0.011 m/sec

NC[C@H](O)c1ccc(O)c(O)c1 [norepinephrine]
effect on spontaneous firing rates [3]: elicits alteration of spontaneous firing rates

O=c1[nH]c(=O)n(C2CCCO2)cc1F (stereo not drawn) [Tegafur]
optimal uracil to Tegafur ratio ([1]; maximizing the concentration of 5-FU in the tumor relative to that in the blood): 4 to 1

CC1(C)C(C=C(Cl)Cl)C1C(=O)OCc1cccc(Oc2ccccc2)c1 (stereo not drawn) [cis-permethrin]
toxicity of cis isomers relative to trans isomers [4]: about ten times more toxic
